Ends that are not written are not given here. * marks the point of attachment. Dansyl = CN(C)c1cccc2c(S(=O)(=O)*)cccc12
Key:
human mast cell tryptase [1] = experiment: VIP assay for tryptase activity (Dns-VIP hydrolysis, HPLC/fluorescence, Dixon plot); format: biochemical; details: 0.4 and 0.8 μM VIP; 12.5 pM tryptase; 37° C.; read-out: Ki for inhibition of the formation of Dns-VIP-(1-14)
Method: In a typical assay, mast cell tryptase (12.5 pM) was incubated at 37° C. with dansyl-VIP (0.2-2 μM) in 100 mM Tris-HCl (pH 8.0) containing 1 μg/ml porcine mucosal heparin and 0.02% Triton X-100 in a final volume of 2.0 ml. To some samples, secretory leukocyte protease inhibitor was added to a final concentration of between 0 and 107 nM. The tryptase was pre-incubated with the SLPI, if added, for 5 min. at 37° C. before initiating the reaction by the addition of Dns-VIP. Aliquots (250 μl) were removed at 0, 2.5, 5.0, 7.5, 10, and 20 minutes to micro-vials (Sunbrokers) and the reaction terminated by the addition of TFA to a final concentration of 3% (v/v). The acidified reaction mixture was subjected to chromatography on a C-18 reverse-phase column (Vydac, 5 micron, 0.46×25 cm). Peptide hydrolysis was monitored by HPLC using a Hewlett Packard HP1090 unit complete with binary solvent delivery and autoinjection capability. Fluorescent detection (postcolumn) was performed with an inline Gilson Model 121 filter fluorimeter (excitation at 310-410 nm, emission at 480-520 nm). Dns-VIP fragments were separated from any unconverted Dns-VIP using a linear gradient of 69:31 (v/v) to 50:50 (v/v) C:D over 5.5 minutes (C=100 mM sodium acetate, pH 6.5 plus 0.2% sodium azide, D=80% ACN in water), with return to 69:31 (v/v) C:D at 6.5 minutes. Chromatography was performed at 1.0 ml/min at 25° C. […]

tryptase = experiment: GPK-AMC assay for tryptase activity (Dixon plot); format: biochemical, human; details: 20 and 40 μM GPK-AMC; 37° C.; read-out: Ki for inhibition of tryptase catalyzed cleavage of GPK-AMC
Method: Tryptase activity was measured according to the procedure of Schwartz, et al., J. Biol. Chem., 261, 7372-7379 (1986) , with minor modifications, using Gly-Pro-Lys-Aminomethylcoumarin (GPK-AMC) as a substrate. The reaction was performed in assay buffer (0.1M Tris, pH 8.0, 10 μg/ml heparin) at room temperature in a 96-well microtiter plate (Perkin-Elmer, Norwalk, Conn.). The amount of coumarin produced by tryptase was determined by measuring the fluorescence (ex=372 nm, em=432 nm) on a Perkin-Elmer LS-50B fluorimeter equipped with a plate reader. 50 μl of tryptase (final concentration of 333 pM) was mixed with either 50 μl of the sample to be tested or with assay buffer and incubated for 5 min. at room temperature. […] The fluorescence intensity was measured every 5 minutes. For samples that were being tested for modulators of tryptase activity, the % inhibition for each fraction was determined by:
Inhibitory activity against tryptase and bovine trypsin was measured using Gly-Pro-Lys-aminomethylcoumarin as a substrate. […] The amount of coumarin produced was determined by measuring the fluorescence (ex=370 nm, em=432 nm) on a Perkin-Elmer LS-50B fluorimeter. […] The reaction was started by the addition of the substrate GPK-AMC (20 or 40 μM final) and the increase in fluorescence was measured over a 2 minute period. […]

human mast cell tryptase [2] = experiment: Kinetic parameters for enzymatic cleavage of Dns-VIP by tryptase; format: biochemical
Method: In a typical assay, mast cell tryptase (12.5 pM) was incubated at 37° C. with dansyl-VIP (0.2-2 μM) in 100 mM Tris-HCl (pH 8.0) containing 1 μg/ml porcine mucosal heparin and 0.02% Triton X-100 in a final volume of 2.0 ml. To some samples, secretory leukocyte protease inhibitor was added to a final concentration of between 0 and 107 nM. The tryptase was pre-incubated with the SLPI, if added, for 5 min. at 37° C. before initiating the reaction by the addition of Dns-VIP. Aliquots (250 μl) were removed at 0, 2.5, 5.0, 7.5, 10, and 20 minutes to micro-vials (Sunbrokers) and the reaction terminated by the addition of TFA to a final concentration of 3% (v/v). The acidified reaction mixture was subjected to chromatography on a C-18 reverse-phase column (Vydac, 5 micron, 0.46×25 cm). Peptide hydrolysis was monitored by HPLC using a Hewlett Packard HP1090 unit complete with binary solvent delivery and autoinjection capability. Fluorescent detection (postcolumn) was performed with an inline Gilson Model 121 filter fluorimeter (excitation at 310-410 nm, emission at 480-520 nm). Dns-VIP fragments were separated from any unconverted Dns-VIP using a linear gradient of 69:31 (v/v) to 50:50 (v/v) C:D over 5.5 minutes (C=100 mM sodium acetate, pH 6.5 plus 0.2% sodium azide, D=80% ACN in water), with return to 69:31 (v/v) C:D at 6.5 minutes. Chromatography was performed at 1.0 ml/min at 25° C. The N-terminal fluorescent products were identified by subjecting known VIP fragments (see above) to chromatography under identical conditions.
The kinetic parameters Km, kcat, and Vmax for the initial rate of formation of Dns-VIP-(1-14) and Dns-VIP-(1-20), as well as the initial rate of disappearance of full-length Dns-VIP were determined. The initial velocity for the formation of Dns-VIP-(1-20) also contains the rate for the formation of Dns-VIP-(1-21) since it appears as a shoulder on the Dns-VIP-(1-20) peak within the elution profile. […] The effect of salt concentration on the initial rates of cleavage of Dns-VIP was measured in 150 mM NaCl and 10 mM CaCl2. In all cases, the kcat/Km values decreased with increasing salt concentration. […] However, this effect was offset by an increase in all of the Km values. […] The results for 10 mM CaCl2 were similar in that Km and Vmax values increased and kcat/Km ratios decreased.
Initial reaction velocities were obtained from a linear least squares analysis of the linear part of a plot of the number of picomoles of each product produced vs. time and where less than 10% of the total Dns-VIP was consumed. To determine the Ki value, a Dixon plot of the form 1/V vs. [I] was made for data collected at two different concentrations of VIP, where V is the velocity (pmoles/min) and [I] is the concentration of SLPI used.

bovine trypsin = target: T1, bovine trypsin (Bos taurus, UniProt P00760); experiment: GPK-AMC assay for trypsin activity (Dixon plot); format: biochemical; details: at a concentration of 1800 nM
T1 sequence (P00760 24-246): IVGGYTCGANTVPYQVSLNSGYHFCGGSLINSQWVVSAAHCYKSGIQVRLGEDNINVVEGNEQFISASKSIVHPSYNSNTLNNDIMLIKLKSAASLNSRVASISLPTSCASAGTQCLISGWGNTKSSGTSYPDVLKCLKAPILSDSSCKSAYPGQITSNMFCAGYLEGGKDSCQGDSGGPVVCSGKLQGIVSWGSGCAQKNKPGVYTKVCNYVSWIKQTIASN
Method: Inhibitory activity against tryptase and bovine trypsin was measured using Gly-Pro-Lys-aminomethylcoumarin as a substrate. The reaction was performed in assay buffer that consisted of 0.1M Tris (pH 8.0), 1 μg/ml heparin, 0.02% Triton X-100, with 20 mM CaCl2 included only in the trypsin assays. The amount of coumarin produced was determined by measuring the fluorescence (ex=370 nm, em=432 nm) on a Perkin-Elmer LS-50B fluorimeter. To measure tryptase activity, 12 μl of a 1 nM solution of tryptase (tetramer) was incubated with either the N- (34 to 650 nM final) or the C-terminal (7-150 nM final) domain of SLPI in 1.0 ml of assay buffer for 5 minutes at 37° C. The reaction was started by the addition of the substrate GPK-AMC (20 or 40 μM final) and the increase in fluorescence was measured over a 2 minute period. In order to measure trypsin activity, 3.3 μl of a 10 μg/ml solution was incubated with either the N- or C- terminal domains of SLPI, and assayed using both 10 and 20 μM GPK-AMC. To determine Ki values, Dixon plots of the form 1/V vs [I] were constructed.

Ki (tryptase) [nM]	Inhibition of trypsin (bovine trypsin)	Substance	Ki (human mast cell tryptase [1]) [nM]	decrease in the kcat/Km ratio (human mast cell tryptase [2]; 10 mM CaCl2 vs no addition) [fold]	decrease in the kcat/Km ratio (human mast cell tryptase [2]; 150 mM NaCl vs no addition) [fold]	increase in Km (human mast cell tryptase [2]; 150 mM NaCl vs no addition) [fold]	increase in Vmax (human mast cell tryptase [2]; 150 mM NaCl vs no addition) [fold]	Km (human mast cell tryptase [2]; Addition: 10 mM CaCl2) [µM]	Vmax (human mast cell tryptase [2]; Addition: 10 mM CaCl2) [pmol/min/mg]	kcat/Km (human mast cell tryptase [2]; Addition: 10 mM CaCl2) [M^-1 sec^1 × 10^7]	Km (human mast cell tryptase [2]; Addition: 150 mM NaCl) [µM]	Vmax (human mast cell tryptase [2]; Addition: 150 mM NaCl) [pmol/min/mg]	kcat/Km (human mast cell tryptase [2]; Addition: 150 mM NaCl) [M^-1 sec^1 × 10^7]	Km (human mast cell tryptase [2]; Addition: None) [µM]	Vmax (human mast cell tryptase [2]; Addition: None) [pmol/min/mg]	kcat/Km (human mast cell tryptase [2]; Addition: None) [M^-1 sec^1 × 10^7]
4.8		C-terminal domain: C-terminal domain of SLPI, amino acids 50-107, from formic acid cleavage of recombinant SLPI (PVDTPNPTRRKPGKCPVTYGQCLMLNPPNFCEMDGQCKRDLKCCMGMCGKSCVSPVKA)	1.6													
		Dns-VIP-(1-14): Dansyl-VIP fragment of amino acids 1-14 formed by tryptase cleavage after Arg-14 (Dansyl-HSDAVFTDNYTRLR; UniProt P01282 125-138, looked up, fragment)		9	16	59	4	4.1	4.5	0.25	7.7	4.9	0.14	0.1	1.3	2.3
		Dns-VIP-(1-20): Dansyl-VIP fragment of amino acids 1-20 formed by tryptase cleavage after Lys-20; peak includes the 1-21 shoulder (Dansyl-HSDAVFTDNYTRLRKQMAVK; UniProt P01282 125-144, looked up, fragment)		11	47	72		4.5	2.6	0.13	9.4	1.1	0.03	0.1	0.6	1.4
		Dns-VIP: N-terminally dansylated vasoactive intestinal peptide (28 amino acids), tryptase substrate (Dansyl-HSDAVFTDNYTRLRKQMAVKKYLNSILN; ends and bridges not checked; also: synthesized on Rink resin (C-terminus not given here))		~5	9	14		4.7	8.2	0.4	7.4	6.6	0.2	0.5	4.3	1.8
290	unable to inhibit	N-terminal domain: N-terminal domain of SLPI, amino acids 1-49, from formic acid cleavage of recombinant SLPI (SGKSFKAGVCPPKKSAQCLRYKKPECQSDWQCPGKKRCCPDTCGIKCLD)	130													

Reference: patent US5633227A, “Secretory leukocyte protease inhibitor as an inhibitor of tryptase” (Miles, Inc., priority 1994, dated 1997)
